Assay results taken from ChEMBL document CHEMBL4765285, “Discovery of orally active indirubin-3'-oxime derivatives as potent type 1 FLT3 inhibitors for acute myeloid leukemia” (Eur J Med Chem, 2020).
Active and inactive are the calls of the source. No cut-off for these calls is given here.

What was measured:
[1] = tested on: HepG2; experiment: cells; details: Homo sapiens
Description: Antiproliferative activity against human HepG2 cells assessed as cell growth inhibition by WST assay

[2] = tested on: MV4-11; experiment: cells; details: Homo sapiens, MV4-11, 72 h
Description: Antiproliferative activity against human MV4-11 cells assessed as cell growth inhibition after 72 hrs by WST assay

[3] = molecular target: Platelet-derived growth factor receptor alpha (Homo sapiens) (UniProt P16234); experiment: Inhibition of human PDGFRa at 100 nM in presence of ATP relative to control
[4] = tested on: MOLM-14; experiment: cells; details: Homo sapiens
Description: Antiproliferative activity against wild type human MOLM14 cells assessed as cell growth inhibition by MTT assay

[5] = molecular target: Receptor-type tyrosine-protein kinase FLT3 (Homo sapiens, UniProt P36888, D835Y); experiment: Inhibition of human FLT3 D835Y mutant in presence of ATP
[6] = molecular target: T1, Receptor-type tyrosine-protein kinase FLT3 (Homo sapiens, UniProt P36888)
T1 sequence (P36888 whole entry): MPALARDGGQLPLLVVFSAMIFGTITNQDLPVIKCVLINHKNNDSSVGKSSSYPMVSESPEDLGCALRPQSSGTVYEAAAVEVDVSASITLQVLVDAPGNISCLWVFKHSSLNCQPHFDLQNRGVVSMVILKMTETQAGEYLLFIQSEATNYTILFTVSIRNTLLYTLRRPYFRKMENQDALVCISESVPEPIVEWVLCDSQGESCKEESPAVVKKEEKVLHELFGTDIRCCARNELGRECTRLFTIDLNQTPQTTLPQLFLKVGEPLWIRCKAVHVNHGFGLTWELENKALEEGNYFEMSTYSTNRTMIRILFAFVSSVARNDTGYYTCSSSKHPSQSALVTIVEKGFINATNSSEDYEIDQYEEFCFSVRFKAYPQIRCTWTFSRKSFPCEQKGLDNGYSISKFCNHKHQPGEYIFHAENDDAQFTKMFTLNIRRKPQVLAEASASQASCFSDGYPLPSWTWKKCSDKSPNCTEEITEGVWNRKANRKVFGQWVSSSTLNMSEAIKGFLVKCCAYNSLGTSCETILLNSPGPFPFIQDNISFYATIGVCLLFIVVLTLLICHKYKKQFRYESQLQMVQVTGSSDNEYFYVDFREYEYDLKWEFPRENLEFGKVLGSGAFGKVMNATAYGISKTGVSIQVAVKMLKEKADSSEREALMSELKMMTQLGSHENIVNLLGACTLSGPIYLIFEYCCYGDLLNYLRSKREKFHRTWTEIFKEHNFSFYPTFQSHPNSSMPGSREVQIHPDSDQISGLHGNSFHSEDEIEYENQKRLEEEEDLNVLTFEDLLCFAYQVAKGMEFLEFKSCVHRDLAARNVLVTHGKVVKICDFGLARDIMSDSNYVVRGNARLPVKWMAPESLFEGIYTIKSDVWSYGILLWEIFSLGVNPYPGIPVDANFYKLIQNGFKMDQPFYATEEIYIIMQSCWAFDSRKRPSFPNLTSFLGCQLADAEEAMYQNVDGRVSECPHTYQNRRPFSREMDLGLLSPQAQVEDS
Description: Inhibition of recombinant His-tagged human FLT3 expressed in baculovirus expression system using peptide substrate incubated for 30 mins in presence of ATP by HTRF assay

[7] = Acute toxicity in ICR female mouse assessed as approximate lethal dose; details: in vivo
[8] = tested on: MV4-11; experiment: Antitumor activity against human MV4-11 cells xenografted in BALB/c nu/nu mouse assessed as reduction in tumor volume at 20 mg/kg, po administered once daily for 21 days measured twice daily during compound dosing; type: functional, organism-based; details: time 21.0 day
[9] = molecular target: T2, Macrophage colony-stimulating factor 1 receptor (Homo sapiens, UniProt P07333); experiment: Inhibition of human FMS at 100 nM in presence of ATP relative to control
T2 sequence (P07333 whole entry): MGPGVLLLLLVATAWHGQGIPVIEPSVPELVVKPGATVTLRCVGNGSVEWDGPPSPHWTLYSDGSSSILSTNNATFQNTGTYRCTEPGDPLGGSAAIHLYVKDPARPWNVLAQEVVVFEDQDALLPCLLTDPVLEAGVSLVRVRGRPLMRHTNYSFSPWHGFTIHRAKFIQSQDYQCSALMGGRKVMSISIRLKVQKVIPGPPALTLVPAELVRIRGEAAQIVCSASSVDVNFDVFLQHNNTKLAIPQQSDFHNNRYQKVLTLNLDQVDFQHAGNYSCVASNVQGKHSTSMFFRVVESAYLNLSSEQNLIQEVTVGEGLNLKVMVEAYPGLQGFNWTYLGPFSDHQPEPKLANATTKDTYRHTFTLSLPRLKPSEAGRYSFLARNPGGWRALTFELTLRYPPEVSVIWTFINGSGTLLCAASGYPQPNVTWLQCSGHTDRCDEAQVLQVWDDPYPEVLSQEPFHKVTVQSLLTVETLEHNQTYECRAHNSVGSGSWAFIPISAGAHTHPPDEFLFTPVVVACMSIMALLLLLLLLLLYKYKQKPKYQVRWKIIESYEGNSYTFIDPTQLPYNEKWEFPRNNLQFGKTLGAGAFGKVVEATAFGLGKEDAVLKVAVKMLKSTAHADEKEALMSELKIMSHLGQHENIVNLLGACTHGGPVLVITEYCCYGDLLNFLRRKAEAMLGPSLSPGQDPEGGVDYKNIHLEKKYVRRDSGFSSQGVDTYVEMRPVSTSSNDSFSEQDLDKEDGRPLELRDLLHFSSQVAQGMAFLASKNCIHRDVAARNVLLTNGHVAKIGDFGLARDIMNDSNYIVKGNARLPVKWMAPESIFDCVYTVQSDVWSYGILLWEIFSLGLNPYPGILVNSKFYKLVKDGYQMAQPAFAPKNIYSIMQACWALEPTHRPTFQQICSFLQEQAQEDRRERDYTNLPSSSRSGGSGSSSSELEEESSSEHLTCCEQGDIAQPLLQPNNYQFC

[10] = molecular target: Cyclin-dependent kinase 2 (Homo sapiens) (UniProt P24941); experiment: Inhibition of human CDK2 at 100 nM in presence of ATP relative to control
[11] = molecular target: Cyclin-dependent kinase 1 (Homo sapiens) (UniProt P06493); experiment: Inhibition of human CDK1 at 100 nM in presence of ATP relative to control
Sequence of Cyclin-dependent kinase 1 (Homo sapiens) (P06493 whole entry, looked up): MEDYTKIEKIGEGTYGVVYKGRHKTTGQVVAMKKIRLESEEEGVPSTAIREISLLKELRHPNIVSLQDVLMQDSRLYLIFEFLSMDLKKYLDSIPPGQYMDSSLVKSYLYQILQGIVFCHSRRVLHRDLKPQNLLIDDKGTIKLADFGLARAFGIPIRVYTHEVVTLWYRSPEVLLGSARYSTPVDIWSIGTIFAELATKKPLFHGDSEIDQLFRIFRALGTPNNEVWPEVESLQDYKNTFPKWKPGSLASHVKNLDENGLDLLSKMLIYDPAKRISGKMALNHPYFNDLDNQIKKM

[12] = molecular target: High affinity nerve growth factor receptor (Homo sapiens, UniProt P04629); experiment: Inhibition of human TrkA in presence of ATP
Sequence of High affinity nerve growth factor receptor (P04629 whole entry): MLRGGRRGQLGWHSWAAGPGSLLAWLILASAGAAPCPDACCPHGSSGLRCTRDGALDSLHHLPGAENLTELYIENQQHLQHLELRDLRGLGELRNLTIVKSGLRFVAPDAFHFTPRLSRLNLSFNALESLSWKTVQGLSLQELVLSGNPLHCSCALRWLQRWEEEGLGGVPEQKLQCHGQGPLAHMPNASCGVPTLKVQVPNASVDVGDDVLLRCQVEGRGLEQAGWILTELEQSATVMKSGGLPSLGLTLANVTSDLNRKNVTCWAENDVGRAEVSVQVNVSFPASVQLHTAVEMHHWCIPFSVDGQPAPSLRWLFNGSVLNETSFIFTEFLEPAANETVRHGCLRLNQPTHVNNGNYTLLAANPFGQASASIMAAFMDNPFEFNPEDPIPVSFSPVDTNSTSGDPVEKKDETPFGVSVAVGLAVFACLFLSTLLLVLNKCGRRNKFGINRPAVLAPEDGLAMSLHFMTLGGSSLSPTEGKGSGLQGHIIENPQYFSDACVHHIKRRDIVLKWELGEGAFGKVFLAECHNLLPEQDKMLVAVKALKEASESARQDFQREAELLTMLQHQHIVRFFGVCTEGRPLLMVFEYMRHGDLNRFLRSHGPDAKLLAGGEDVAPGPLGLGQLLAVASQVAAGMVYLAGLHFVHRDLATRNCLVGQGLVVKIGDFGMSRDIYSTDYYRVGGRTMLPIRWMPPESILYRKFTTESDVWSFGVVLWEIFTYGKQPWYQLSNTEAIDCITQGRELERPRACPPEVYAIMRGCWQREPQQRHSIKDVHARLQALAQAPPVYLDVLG

[13] = Oral bioavailability in ICR mouse at 10 mg/kg measured up to 1440 mins by LC-MS/MS analysis; type: ADME, organism-based; details: in vivo
[14] = molecular target: Receptor-type tyrosine-protein kinase FLT3 (Homo sapiens) (UniProt P36888); experiment: Inhibition of FLT3 in human MV4-11 cells assessed as reduction in STAT5 phosphorylation at 10 nM incubated for 4 hrs by Western blot analysis; type: cell-based
[15] = tested on: MOLM-14; experiment: cells; details: Homo sapiens; remark: listed apart in the source
Description: Antiproliferative activity against human MOLM14 cells harboring ITD/F691L mutant assessed as cell growth inhibition by MTT assay

[16] = Selectivity index, ratio of GI50 for human K562 cells to GI50 for human MV4-11 cells; type: functional
[17] = molecular target: Receptor-type tyrosine-protein kinase FLT3 (Homo sapiens) (UniProt P36888); experiment: Inhibition of FLT3 in human MV4-11 cells assessed as reduction in Erk1/2 phosphorylation at 0.01 to 1 uM incubated for 4 hrs by Western blot analysis; type: cell-based; details: dose 0.01-1 µM
[18] = molecular target: T3, Vascular endothelial growth factor receptor 3 (Homo sapiens, UniProt P35916); experiment: Inhibition of human FLT4 at 100 nM in presence of ATP relative to control
T3 sequence (P35916 whole entry): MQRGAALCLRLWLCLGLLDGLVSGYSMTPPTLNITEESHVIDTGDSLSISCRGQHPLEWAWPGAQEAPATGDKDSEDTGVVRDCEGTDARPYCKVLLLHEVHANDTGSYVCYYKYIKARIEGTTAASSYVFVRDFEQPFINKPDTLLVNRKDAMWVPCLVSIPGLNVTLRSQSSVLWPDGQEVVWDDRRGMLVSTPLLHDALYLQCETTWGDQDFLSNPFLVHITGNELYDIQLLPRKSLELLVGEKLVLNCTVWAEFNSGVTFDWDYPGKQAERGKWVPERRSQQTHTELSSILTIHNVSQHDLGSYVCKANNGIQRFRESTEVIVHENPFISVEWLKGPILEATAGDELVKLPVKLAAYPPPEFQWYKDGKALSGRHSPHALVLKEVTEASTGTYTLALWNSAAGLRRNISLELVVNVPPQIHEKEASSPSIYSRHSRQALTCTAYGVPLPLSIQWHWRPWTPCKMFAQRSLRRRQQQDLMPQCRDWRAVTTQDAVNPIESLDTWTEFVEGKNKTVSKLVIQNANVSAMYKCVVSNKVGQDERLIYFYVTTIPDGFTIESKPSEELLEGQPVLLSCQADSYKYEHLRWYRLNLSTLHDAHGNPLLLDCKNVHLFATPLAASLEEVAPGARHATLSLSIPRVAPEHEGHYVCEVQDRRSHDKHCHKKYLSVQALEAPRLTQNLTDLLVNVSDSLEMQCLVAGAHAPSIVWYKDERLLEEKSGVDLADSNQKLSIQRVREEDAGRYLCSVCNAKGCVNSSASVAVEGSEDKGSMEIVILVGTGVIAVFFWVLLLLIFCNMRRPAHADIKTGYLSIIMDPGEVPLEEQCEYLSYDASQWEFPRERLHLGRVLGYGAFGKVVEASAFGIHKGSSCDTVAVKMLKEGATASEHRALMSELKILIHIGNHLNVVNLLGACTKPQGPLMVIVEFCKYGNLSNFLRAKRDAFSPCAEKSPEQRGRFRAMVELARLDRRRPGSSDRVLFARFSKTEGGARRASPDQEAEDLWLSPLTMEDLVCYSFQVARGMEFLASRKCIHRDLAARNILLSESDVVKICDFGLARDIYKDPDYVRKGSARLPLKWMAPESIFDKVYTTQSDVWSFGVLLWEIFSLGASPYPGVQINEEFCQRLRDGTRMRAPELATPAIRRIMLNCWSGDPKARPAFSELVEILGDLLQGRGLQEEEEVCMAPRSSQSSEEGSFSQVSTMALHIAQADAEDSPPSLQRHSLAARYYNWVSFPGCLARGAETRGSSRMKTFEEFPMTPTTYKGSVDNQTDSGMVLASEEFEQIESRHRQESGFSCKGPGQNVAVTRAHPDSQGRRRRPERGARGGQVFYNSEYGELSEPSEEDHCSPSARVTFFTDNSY

[19] = tested on: Receptor-type tyrosine-protein kinase FLT3 (Homo sapiens), P36888 [D835Y]; experiment: Inhibition of human FLT3 D835Y mutant at 100 nM in presence of ATP relative to control
[20] = molecular target: Maternal embryonic leucine zipper kinase (Homo sapiens, UniProt Q14680); experiment: Inhibition of human MELK at 100 nM in presence of ATP relative to control
Sequence of Maternal embryonic leucine zipper kinase (Q14680 whole entry, looked up): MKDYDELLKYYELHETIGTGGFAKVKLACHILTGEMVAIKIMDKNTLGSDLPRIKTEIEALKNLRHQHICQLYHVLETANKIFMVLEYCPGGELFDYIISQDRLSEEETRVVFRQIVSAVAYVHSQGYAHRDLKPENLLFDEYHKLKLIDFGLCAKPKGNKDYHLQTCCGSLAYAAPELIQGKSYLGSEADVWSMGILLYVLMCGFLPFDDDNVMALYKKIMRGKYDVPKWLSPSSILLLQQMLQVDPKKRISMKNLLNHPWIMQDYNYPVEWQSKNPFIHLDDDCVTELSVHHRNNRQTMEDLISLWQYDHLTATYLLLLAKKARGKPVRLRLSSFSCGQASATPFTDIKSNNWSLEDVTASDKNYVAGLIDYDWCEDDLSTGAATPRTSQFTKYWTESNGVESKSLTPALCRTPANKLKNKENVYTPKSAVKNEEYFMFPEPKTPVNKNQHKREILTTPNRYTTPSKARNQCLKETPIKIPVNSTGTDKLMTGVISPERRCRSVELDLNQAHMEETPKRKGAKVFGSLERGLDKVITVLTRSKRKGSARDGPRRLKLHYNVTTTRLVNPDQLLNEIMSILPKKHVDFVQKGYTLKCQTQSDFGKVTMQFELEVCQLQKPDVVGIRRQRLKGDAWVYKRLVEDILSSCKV

[21] = molecular target: T4, Proto-oncogene tyrosine-protein kinase Src (Homo sapiens, UniProt P12931); experiment: Inhibition of human c-SRC at 100 nM in presence of ATP relative to control
T4 sequence (P12931 2-536 limits assumed): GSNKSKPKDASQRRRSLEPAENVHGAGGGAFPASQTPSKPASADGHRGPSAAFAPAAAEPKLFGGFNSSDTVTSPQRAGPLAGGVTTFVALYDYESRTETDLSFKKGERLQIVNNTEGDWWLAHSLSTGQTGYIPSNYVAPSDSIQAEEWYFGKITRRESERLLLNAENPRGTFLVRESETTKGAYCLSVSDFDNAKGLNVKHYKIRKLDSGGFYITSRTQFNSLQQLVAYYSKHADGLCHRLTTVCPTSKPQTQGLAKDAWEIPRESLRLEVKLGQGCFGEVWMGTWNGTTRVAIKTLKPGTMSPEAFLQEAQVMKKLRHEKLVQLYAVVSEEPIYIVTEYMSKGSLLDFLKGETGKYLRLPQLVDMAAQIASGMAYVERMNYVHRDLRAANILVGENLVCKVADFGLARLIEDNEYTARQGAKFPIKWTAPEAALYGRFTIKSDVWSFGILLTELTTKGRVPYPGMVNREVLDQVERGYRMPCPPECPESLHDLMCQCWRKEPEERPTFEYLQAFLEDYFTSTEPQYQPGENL

[22] = AUClast in ICR mouse at 10 mg/kg, iv or po measured up to 1440 mins by LC-MS/MS analysis; type: ADME, organism-based; design: dose 10 mg/kg, time <=1440; details: in vivo
[23] = tested on: K562; experiment: Antiproliferative activity against human K562 cells assessed as cell growth inhibition by WST assay; type: functional
[24] = molecular target: T3, Vascular endothelial growth factor receptor 3; experiment: Inhibition of human FLT4 in presence of ATP
[25] = molecular target: Mast/stem cell growth factor receptor Kit (Homo sapiens) (UniProt P10721); experiment: Inhibition of human c-KIT at 100 nM in presence of ATP relative to control
[26] = molecular target: Receptor-type tyrosine-protein kinase FLT3 (Homo sapiens) (UniProt P36888); experiment: Inhibition of human FLT3 at 100 nM in presence of ATP relative to control
[27] = molecular target: T2, Macrophage colony-stimulating factor 1 receptor; experiment: Inhibition of human FMS in presence of ATP
[28] = molecular target: Cyclin-dependent kinase 5 (Homo sapiens) (UniProt Q00535); experiment: Inhibition of human CDK5 at 100 nM in presence of ATP relative to control
Sequence of Cyclin-dependent kinase 5 (Homo sapiens) (Q00535 whole entry, looked up): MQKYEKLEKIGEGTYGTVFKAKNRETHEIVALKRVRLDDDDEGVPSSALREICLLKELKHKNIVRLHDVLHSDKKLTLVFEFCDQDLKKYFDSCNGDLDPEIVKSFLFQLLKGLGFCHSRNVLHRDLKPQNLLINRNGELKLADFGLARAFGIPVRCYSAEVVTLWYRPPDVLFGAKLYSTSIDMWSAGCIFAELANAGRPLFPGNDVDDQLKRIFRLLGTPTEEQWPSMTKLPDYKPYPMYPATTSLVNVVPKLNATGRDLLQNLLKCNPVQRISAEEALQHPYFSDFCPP

[29] = Acute toxicity in ICR male mouse assessed as approximate lethal dose; details: in vivo, read-out: ALD50
[30] = molecular target: T4, Proto-oncogene tyrosine-protein kinase Src; experiment: Inhibition of human c-SRC in presence of ATP
[31] = Toxicity in BALB/c nu/nu mouse xenografted with human MV4-11 cells assessed as body weight loss at 20 mg/kg, po administered for 21 days; type: organism-based; details: in vivo, 504 h, time 21 day

Cl.O=C1Nc2ccc(F)cc2/C1=C1/Nc2ccccc2/C1=N\OCCN1CCNCC1
GI50 [1]: 1100 nM
GI50 [2]: 1 nM
inhibition [3]: 5%
GI50 [4]: 4.88 nM
IC50 [5]: 0.32 nM
IC50 [6]: 0.87 nM
ALD50 [7]: 2000 mg/kg
Activity [8]: Active
inhibition [9]: 92%
inhibition [10]: 43%
inhibition [11]: 21%
IC50 [12]: 6.89 nM
bioavailability [13]: 42.6%
inhibition [14]: 100%
GI50 [15]: 3.27 nM
RatioGI50 [16]: 430
inhibition [17]: Active
inhibition [18]: 89%
inhibition [19]: 99%
inhibition [20]: 86%
inhibition [21]: 87%
AUC(0-t) at 24 h [22]: 417 ng·h/mL
GI50 [23]: 437 nM
IC50 [24]: 23.8 nM
inhibition [25]: 22%
inhibition [26]: 98%
IC50 [27]: 4.2 nM
inhibition [28]: 54%
LD50 [29]: 2000 mg/kg
IC50 [30]: 9.52 nM
Activity [31]: Non-Toxic
